Patent US11185100B2 (priority 2014, dated 2021)

Columns and labels:
T1R1/T1R3 receptor [1] = molecular target: T1, T1R1/T1R3 receptor (Felis catus, UniProt E3UMS2); experiment: Activation of T1R1/T1R3 receptor by transmembrane compounds and nucleotide derivatives, conducted as in Examples 1, 2 and 5 (Example 7); type: cell-based, cat; settings: for Max resp % of IMP +Alanine (20 mM): hek293 cells; for Activity: modulation of T1R1/T1R3
Text: (§1) Methods: HEK293 cells that stably express T1R3 and inducibly express T1R1 were exposed to nucleotide derivatives alone to activate the umami receptor. Activation of the T1R1/T1R3 receptor was detected by a change in intracellular calcium levels using a calcium sensitive fluorescent dye. Cells that express T1R3 but not T1R1 were used as a control. A FLIPR® Tetra or a FlexStation® 3 was used for data capture.
as §1, with “alone or in combination with one or more amino acids and/or one or more nucleotides” for “alone”, “dye and/or a luminescent reporter system.” for “dye.”
as §1, with “transmembrane compounds” for “nucleotide derivatives”, “alone or in combination with one or more amino acids and/or one or more nucleotides” for “alone”
(§2) In each experiment, serial dilutions of up to 10 mM of the transmembrane compound were added to the T1R1/T1R3-expressing cells.

T1R1/T1R3 receptor [2] = molecular target: T1, T1R1/T1R3 receptor; experiment: Activation of T1R1/T1R3 receptor by transmembrane compounds alone or with alanine, IMP, GMP, phenylalanine; HEK293 cells, calcium fluorescence (Example 5); type: cell-based, cat; settings: for Max resp % of IMP +Alanine (20 mM): relative to IMP; for Thres +Alanine (20 mM) / Thres +IMP (0.2 mM): threshold concentration; for Max resp % of Ala +IMP (0.2 mM): relative to Ala; for Activity: Table 18, all transmembrane compounds tested, active / N/A (not active)
Text: as §1, with “transmembrane compounds” for “nucleotide derivatives”, “alone or in combination with one or more amino acids and/or one or more nucleotides” for “alone”
as §2

Compound	Max resp % of Ala +IMP (0.2 mM) (T1R1/T1R3 receptor [1]; +IMP (0.2 mM))	+Alanine (20 mM) Max resp % of IMP (T1R1/T1R3 receptor [2]; +Alanine (20 mM))	+Alanine (20 mM) Max resp ΔF/F (T1R1/T1R3 receptor [2]; +Alanine (20 mM))	+Alanine (20 mM) Thres (T1R1/T1R3 receptor [2]; +Alanine (20 mM))	Max resp % of IMP +Alanine (20 mM) (T1R1/T1R3 receptor [2]; +Alanine (20 mM))	Thres +Alanine (20 mM) (T1R1/T1R3 receptor [2]; +Alanine (20 mM))	+IMP (0.2 mM) Max resp % of Ala (T1R1/T1R3 receptor [2])	Max resp ΔF/F +IMP (0.2 mM) (T1R1/T1R3 receptor [2])	Max resp % of Ala +IMP (0.2 mM) (T1R1/T1R3 receptor [2])	Thres +IMP (0.2 mM) (T1R1/T1R3 receptor [2])	Activity (T1R1/T1R3 receptor [2])	also measured
CC(=O)Nc1ccc(C(=O)Nc2cc(-c3ccccc3)nn2CCO)cc1 [4-acetamido-N-(1-(2-hydroxyethyl)-3-phenyl-1H-pyrazol-5-yl)benzamide]	58.8 % of Ala	–	–	–	–	–	–	–	–	–	–	Max resp ΔF/F +Alanine (20 mM) (T1R1/T1R3 receptor [1]): 0.0125 ΔF/F; Max resp ΔF/F +IMP (0.2 mM) (T1R1/T1R3 receptor [1]; +IMP (0.2 mM)): 0.4575 ΔF/F; Max resp % of IMP +Alanine (20 mM) (T1R1/T1R3 receptor [1]): 1.8 % of IMP; Activity (T1R1/T1R3 receptor [1]): active
N[C@@H](Cc1ccccc1)C(=O)O [L-Phenylalanine, reference compound]	75.9 % of Ala	–	–	–	–	–	–	–	–	–	–	Max resp ΔF/F +IMP (0.2 mM) (T1R1/T1R3 receptor [1]; +IMP (0.2 mM)): 0.5900 ΔF/F; Thres +IMP (0.2 mM) (T1R1/T1R3 receptor [1]; +IMP (0.2 mM)): 0.1 mM
O=C(NCCCCNC(=O)c1cccnc1)c1cccnc1 [N,N′-(butane-1,4-diyl)dinicotinamide]	49.2 % of Ala	–	–	–	–	–	–	–	–	–	–	Max resp ΔF/F +Alanine (20 mM) (T1R1/T1R3 receptor [1]): 0.0650 ΔF/F; Thres +Alanine (20 mM) (T1R1/T1R3 receptor [1]): 1.0 mM; Max resp ΔF/F +IMP (0.2 mM) (T1R1/T1R3 receptor [1]; +IMP (0.2 mM)): 0.3825 ΔF/F; Thres +IMP (0.2 mM) (T1R1/T1R3 receptor [1]; +IMP (0.2 mM)): 0.1 mM; Max resp % of IMP +Alanine (20 mM) (T1R1/T1R3 receptor [1]): 9.5 % of IMP; Activity (T1R1/T1R3 receptor [1]): active; EC50 (T1R1/T1R3 receptor [1]; read-out: EC50 +Alanine (20 mM) + IMP (0.2 mM)): 610 µM; EC50 (T1R1/T1R3 receptor [1]; read-out: T1R1/T1R3 EC50): 610 ± 360 µM
Nc1ccccc1C(=O)NCCc1ccccc1 [2-amino-N-phenethylbenzamide]	194.5 % of Ala	–	–	–	–	–	–	–	–	–	–	Max resp ΔF/F +Alanine (20 mM) (T1R1/T1R3 receptor [1]): 0.6400 ΔF/F; Thres +Alanine (20 mM) (T1R1/T1R3 receptor [1]): 0.3 mM; Max resp ΔF/F +IMP (0.2 mM) (T1R1/T1R3 receptor [1]; +IMP (0.2 mM)): 1.5125 ΔF/F; Thres +IMP (0.2 mM) (T1R1/T1R3 receptor [1]; +IMP (0.2 mM)): 0.01 mM; Max resp % of IMP +Alanine (20 mM) (T1R1/T1R3 receptor [1]): 93.4 % of IMP; Activity (T1R1/T1R3 receptor [1]): active
N[C@@H](Cc1c[nH]cn1)C(=O)O [L-Histidine, L-histidine, reference compound]	36.3 % of Ala	–	–	–	–	–	–	–	–	–	–	Max resp ΔF/F +IMP (0.2 mM) (T1R1/T1R3 receptor [1]; +IMP (0.2 mM)): 0.2825 ΔF/F; Thres +IMP (0.2 mM) (T1R1/T1R3 receptor [1]; +IMP (0.2 mM)): 10.0 mM
CCC(CC)NC(=O)c1ccc(OC)c(OC)c1 [3,4-dimethoxy-N-(pentan-3-yl)benzamide]	–	43.9 % of IMP	0.545 ΔF/F	0.3 mM	43.9%	0.3 mM	81.0 % of Ala	0.9975 ΔF/F	81.0%	0.5 mM	active	–
COc1ccc(/C=C/C(=O)NC2CCCCC2C)cc1 (stereo not shown) [(E)-3-(4-methoxyphenyl)-N-(2-methylcyclohexyl) acrylamide]	–	63.2 % of IMP	0.785 ΔF/F	3 mM	63.2%	3 mM	144.0 % of Ala	1.7725 ΔF/F	144.0%	0.3 mM	active	–
N[C@@H](Cc1ccc(O)cc1)C(=O)O [L-Tyrosine, reference compound]	38.0 % of Ala	–	–	–	–	–	–	–	–	–	–	Max resp ΔF/F +IMP (0.2 mM) (T1R1/T1R3 receptor [1]): 0.2958 ΔF/F; Thres +IMP (0.2 mM) (T1R1/T1R3 receptor [1]; +IMP (0.2 mM)): 3.0 mM
O=C(NCCc1ccccc1)C(=O)NCc1cccnc1 [N1-phenethyl-N2-(pyridin-3-ylmethyl)oxalamide; N-(2-phenylethyl)-N′-(pyridin-3-ylmethyl)ethanediamide]	–	30.2 % of IMP	0.3750 ΔF/F	1 mM	–	–	61.9 % of Ala	–	–	–	–	–
CCC(CC)NC(=O)/C=C/c1ccc(OC)cc1 [(E)-3-(4-methoxyphenyl)-N-(pentan-3-yl)acrylamide]	–	64.1 % of IMP	0.7 ΔF/F	0.148 mM	64.1%	0.148 mM	171.7 % of Ala	1.443 ΔF/F	171.7%	0.0375 mM	active	–
O=C(CN1C(=O)C(=O)N(Cc2ccccc2)C1=O)c1ccccc1 [1-benzyl-3-(2-oxo-2-phenylethyl)imidazolidine-2,4,5-trione]	–	127.6 % of IMP	1.3 ΔF/F	1 mM	127.6%	1 mM	135.7 % of Ala	1.140 ΔF/F	135.7%	0.08 mM	active	EC50 (T1R1/T1R3 receptor [2]; compound alone in buffer, read-out: EC50 +buffer (alone)): > 1000 µM; EC50 (T1R1/T1R3 receptor [2]; read-out: +Alanine (20 mM) + IMP (0.2 mM) EC50, +Alanine (20 mM) + IMP (0.2 mM)): 330 ± 40 µM; EC50 (T1R1/T1R3 receptor [2]; read-out: EC50 +Alanine (20 mM) + IMP (0.2 mM), +Alanine (20 mM) + IMP (0.2 mM)): 330 µM; EC50 (T1R1/T1R3 receptor [2]; read-out: EC50 +Alanine (20 mM), +Alanine (20 mM)): > 1000 µM
COc1ccc(C(=O)NC(C)c2ccccc2)cc1C (stereo not shown) [4-methoxy-3-methyl-N-(1-phenylethyl)benzamide]	–	41.0 % of IMP	0.51 ΔF/F	3 mM	41.0%	3 mM	95.6 % of Ala	1.1775 ΔF/F	95.6%	0.35 mM	active	–
CCOC(=O)C(NC(=O)c1ccc2c(c1)OCO2)C(C)C (stereo not shown) [ethyl 2-(benzo[d][1,3]dioxole-5-carboxamido)-3-methylbutanoate]	–	25.6 % of IMP	0.3175 ΔF/F	10 mM	25.6%	10 mM	52.8 % of Ala	0.65 ΔF/F	52.8%	1 mM	active	–
CSc1ccc(-c2nnn(Cc3ccccn3)n2)cc1 [2-((5-(4-(methylthio)phenyl)-2H-tetrazol-2-yl)methyl)pyridine]	–	–	–	–	–	–	80.7 % of Ala	0.678 ΔF/F	80.7%	0.1575 mM	active	–
CCC(CC)NC(=O)c1ccc(C)c(C)c1 [3,4-dimethyl-N-(pentan-3-yl)benzamide]	–	–	–	–	97.8%	3 mM	–	1.5475 ΔF/F	125.7%	0.525 mM	active	–
CCCC(C)NC(=O)/C=C/c1ccc(OC)c(OC)c1 (stereo not shown) [(E)-3-(3,4-dimethoxyphenyl)-N-(pentan-2-yl)acrylamide]	–	–	–	–	35.2%	1 mM	–	1.07 ΔF/F	86.9%	0.55 mM	active	–
COC(=O)C(NC(=O)/C=C/c1cccs1)C(C)C (stereo not shown) [(E)-methyl 3-methyl-2-(3-(thiophen-2-yl)acrylamido)butanoate]	–	9.5 % of IMP	0.1175 ΔF/F	10 mM	9.5%	10 mM	59.9 % of Ala	0.7375 ΔF/F	59.9%	1 mM	active	–
COc1cc(C(=O)NC(C(N)=O)c2ccccc2)cc(Cl)c1OC (stereo not shown) [N-(2-amino-2-oxo-1-phenylethyl)-3-chloro-4,5-dimethoxybenzamide]	–	–	–	–	–	–	49.4 % of Ala	0.415 ΔF/F	49.4%	0.17 mM	active	activation of T1R1/T1R3 by the transmembrane compound alone (in words) (T1R1/T1R3 receptor [2]; compound alone): failed to activate
CCCC(C)NC(=O)/C=C/c1ccc(OC)c(OC)c1 (stereo not shown) [(E)-3-(3,4-dimethoxyphenyl)-N-(pentan-2-yl)acrylamide; (2E)-3-(3,4-dimethoxyphenyl)-N-(pentan-2-yl)prop-2-enamide]	–	35.2 % of IMP	0.4375 ΔF/F	1 mM	–	–	86.9 % of Ala	–	–	–	–	–
O=C(Nc1ccccc1Br)N[C@@H]1c2ccccc2C[C@@H]1O (stereo in doubt) [1-(2-bromophenyl)-3-((1R,2S)-2-hydroxy-2,3-dihydro-1H-inden-1-yl)urea]	–	33.0 % of IMP	0.3 ΔF/F	3 mM	33.0%	3 mM	44.9 % of Ala	0.378 ΔF/F	44.9%	3 mM	active	–
